≈ marks a conversion by molar mass, not a printed value. Starred links: 1 amine or outer side, 2 acyl side, 3 side chain; linkers in the order of their positions; H or OH if unused. Positions of bridges follow the written chain, without caps; N, C: chain ends. Non-standard residues stand in square brackets, D forms with d. Residues, ends and D or L forms follow the SMILES beside them. *: point of attachment. Orn(4R-OH,5R-OCH2CH2NMe3+) = C[N+](C)(C)CCO[C@@H](N[*:3])[C@H](O)C[C@H](N[*:1])C(=O)[*:2]; hTyr(3S-OH,4S-OH,3'-OSO3H) = N[C@H](C(=O)O)[C@H](O)[C@@H](O)c1ccc(O)c(OS(=O)(=O)O)c1; pTerphenylCO(4''-OnC5H11) = CCCCCOc1ccc(-c2ccc(-c3ccc(C(=O)*)cc3)cc2)cc1; Orn(4R-OH,5R-OH) = O=C([C@H](C[C@@H](O)[C@@H](O)N[*:3])N[*:1])[*:2]; hTyr(3S-OH,4S-OH) = N[C@H](C(=O)O)[C@H](O)[C@@H](O)c1ccc(O)cc1; Pro(3S-OH,4S-Me) = C[C@H]1CN[C@H](C(=O)O)[C@H]1O; X1 = CCCCCOc1ccc(-c2cc(-c3ccc(C(=O)*)cc3)no2)cc1; Gln(3R-OH) = NC(=O)C[C@@H](O)[C@H](N)C(=O)O; Hyp = O=C(O)[C@@H]1C[C@@H](O)CN1
How the values were obtained:
[1] = tested on: C. parapsilosis CP02; test: Broth microdilution MIC (CLSI), Examples 3 and 4; conditions: Lodderomyces parapsilosis, CP02, 24 h, read-out: Broth MIC
Protocol: Antifungal susceptibility testing. Candida strains were cultured aerobically at 35° C. on SDA plates or in RPMI 1640 broth (pH 7.0). […] MIC assays were performed in triplicate.

[2] = biological target: 1,3-β-D-glucan synthase from C. albicans (Candida albicans, UniProt O13428, S645P); test: Glucan synthase (GS) inhibition assay; conditions: IC50, DPL20; Fks1 S645P
Sequence of 1,3-β-D-glucan synthase from C. albicans (Candida albicans, UniProt O13428, S645P) (O13428 entry or part of it S645P): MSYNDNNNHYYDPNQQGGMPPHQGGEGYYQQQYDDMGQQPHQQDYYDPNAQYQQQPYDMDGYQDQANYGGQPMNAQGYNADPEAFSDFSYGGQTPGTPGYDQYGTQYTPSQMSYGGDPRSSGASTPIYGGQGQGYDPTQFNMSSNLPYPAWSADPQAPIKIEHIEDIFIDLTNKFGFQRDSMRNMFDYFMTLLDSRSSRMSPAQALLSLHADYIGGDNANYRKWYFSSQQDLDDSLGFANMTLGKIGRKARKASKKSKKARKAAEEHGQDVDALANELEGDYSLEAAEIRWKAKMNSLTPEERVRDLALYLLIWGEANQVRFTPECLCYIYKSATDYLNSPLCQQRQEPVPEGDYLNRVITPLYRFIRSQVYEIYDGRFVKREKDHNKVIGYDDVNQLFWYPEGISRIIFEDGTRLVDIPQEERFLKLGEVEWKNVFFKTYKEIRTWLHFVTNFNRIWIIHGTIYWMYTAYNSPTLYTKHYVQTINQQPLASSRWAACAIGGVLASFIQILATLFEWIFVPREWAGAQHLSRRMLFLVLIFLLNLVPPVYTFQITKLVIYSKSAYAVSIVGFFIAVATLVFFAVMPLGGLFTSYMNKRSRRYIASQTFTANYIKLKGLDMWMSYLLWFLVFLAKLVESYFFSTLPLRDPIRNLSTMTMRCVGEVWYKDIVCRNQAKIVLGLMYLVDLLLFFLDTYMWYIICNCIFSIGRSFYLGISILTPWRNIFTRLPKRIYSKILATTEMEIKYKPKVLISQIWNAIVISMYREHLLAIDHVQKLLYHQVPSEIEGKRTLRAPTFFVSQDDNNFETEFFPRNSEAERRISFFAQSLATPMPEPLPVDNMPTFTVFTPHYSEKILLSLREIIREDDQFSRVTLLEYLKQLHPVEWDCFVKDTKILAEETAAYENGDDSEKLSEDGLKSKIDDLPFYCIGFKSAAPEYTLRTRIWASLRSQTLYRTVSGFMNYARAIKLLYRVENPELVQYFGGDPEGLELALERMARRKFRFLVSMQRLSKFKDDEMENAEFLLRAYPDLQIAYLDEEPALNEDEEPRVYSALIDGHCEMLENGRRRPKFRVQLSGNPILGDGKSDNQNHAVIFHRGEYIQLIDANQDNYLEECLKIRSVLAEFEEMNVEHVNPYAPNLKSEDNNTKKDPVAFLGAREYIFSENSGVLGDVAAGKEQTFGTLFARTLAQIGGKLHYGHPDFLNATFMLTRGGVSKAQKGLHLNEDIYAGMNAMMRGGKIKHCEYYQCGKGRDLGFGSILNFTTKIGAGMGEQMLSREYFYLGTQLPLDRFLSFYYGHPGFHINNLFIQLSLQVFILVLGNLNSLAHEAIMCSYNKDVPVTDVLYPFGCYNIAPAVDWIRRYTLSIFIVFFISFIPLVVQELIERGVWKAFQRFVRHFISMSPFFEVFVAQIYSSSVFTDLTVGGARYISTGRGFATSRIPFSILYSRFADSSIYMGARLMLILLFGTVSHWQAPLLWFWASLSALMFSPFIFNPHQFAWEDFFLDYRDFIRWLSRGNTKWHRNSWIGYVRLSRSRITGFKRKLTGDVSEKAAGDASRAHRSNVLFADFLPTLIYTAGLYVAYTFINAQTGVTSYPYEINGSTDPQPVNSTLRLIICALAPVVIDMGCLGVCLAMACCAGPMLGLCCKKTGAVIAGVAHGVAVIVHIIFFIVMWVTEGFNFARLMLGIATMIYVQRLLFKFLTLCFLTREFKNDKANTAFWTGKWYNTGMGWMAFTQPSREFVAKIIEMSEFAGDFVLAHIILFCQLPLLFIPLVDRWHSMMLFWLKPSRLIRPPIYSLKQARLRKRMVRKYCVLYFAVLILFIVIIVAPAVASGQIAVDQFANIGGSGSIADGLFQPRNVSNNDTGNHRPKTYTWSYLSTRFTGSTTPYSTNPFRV

[3] = biological target: 1,3-β-D-glucan synthase from C. albicans (Candida albicans, UniProt O13428); test: Glucan synthase (GS) inhibition assay
[4] = biological target: 1,3-β-D-glucan synthase from C. albicans (Candida albicans, UniProt O13428, F641S); test: Glucan synthase (GS) inhibition assay; conditions: IC50, DPL18; Fks1 F641S
Sequence of 1,3-β-D-glucan synthase from C. albicans (Candida albicans, UniProt O13428, F641S) (O13428 entry or part of it F641S): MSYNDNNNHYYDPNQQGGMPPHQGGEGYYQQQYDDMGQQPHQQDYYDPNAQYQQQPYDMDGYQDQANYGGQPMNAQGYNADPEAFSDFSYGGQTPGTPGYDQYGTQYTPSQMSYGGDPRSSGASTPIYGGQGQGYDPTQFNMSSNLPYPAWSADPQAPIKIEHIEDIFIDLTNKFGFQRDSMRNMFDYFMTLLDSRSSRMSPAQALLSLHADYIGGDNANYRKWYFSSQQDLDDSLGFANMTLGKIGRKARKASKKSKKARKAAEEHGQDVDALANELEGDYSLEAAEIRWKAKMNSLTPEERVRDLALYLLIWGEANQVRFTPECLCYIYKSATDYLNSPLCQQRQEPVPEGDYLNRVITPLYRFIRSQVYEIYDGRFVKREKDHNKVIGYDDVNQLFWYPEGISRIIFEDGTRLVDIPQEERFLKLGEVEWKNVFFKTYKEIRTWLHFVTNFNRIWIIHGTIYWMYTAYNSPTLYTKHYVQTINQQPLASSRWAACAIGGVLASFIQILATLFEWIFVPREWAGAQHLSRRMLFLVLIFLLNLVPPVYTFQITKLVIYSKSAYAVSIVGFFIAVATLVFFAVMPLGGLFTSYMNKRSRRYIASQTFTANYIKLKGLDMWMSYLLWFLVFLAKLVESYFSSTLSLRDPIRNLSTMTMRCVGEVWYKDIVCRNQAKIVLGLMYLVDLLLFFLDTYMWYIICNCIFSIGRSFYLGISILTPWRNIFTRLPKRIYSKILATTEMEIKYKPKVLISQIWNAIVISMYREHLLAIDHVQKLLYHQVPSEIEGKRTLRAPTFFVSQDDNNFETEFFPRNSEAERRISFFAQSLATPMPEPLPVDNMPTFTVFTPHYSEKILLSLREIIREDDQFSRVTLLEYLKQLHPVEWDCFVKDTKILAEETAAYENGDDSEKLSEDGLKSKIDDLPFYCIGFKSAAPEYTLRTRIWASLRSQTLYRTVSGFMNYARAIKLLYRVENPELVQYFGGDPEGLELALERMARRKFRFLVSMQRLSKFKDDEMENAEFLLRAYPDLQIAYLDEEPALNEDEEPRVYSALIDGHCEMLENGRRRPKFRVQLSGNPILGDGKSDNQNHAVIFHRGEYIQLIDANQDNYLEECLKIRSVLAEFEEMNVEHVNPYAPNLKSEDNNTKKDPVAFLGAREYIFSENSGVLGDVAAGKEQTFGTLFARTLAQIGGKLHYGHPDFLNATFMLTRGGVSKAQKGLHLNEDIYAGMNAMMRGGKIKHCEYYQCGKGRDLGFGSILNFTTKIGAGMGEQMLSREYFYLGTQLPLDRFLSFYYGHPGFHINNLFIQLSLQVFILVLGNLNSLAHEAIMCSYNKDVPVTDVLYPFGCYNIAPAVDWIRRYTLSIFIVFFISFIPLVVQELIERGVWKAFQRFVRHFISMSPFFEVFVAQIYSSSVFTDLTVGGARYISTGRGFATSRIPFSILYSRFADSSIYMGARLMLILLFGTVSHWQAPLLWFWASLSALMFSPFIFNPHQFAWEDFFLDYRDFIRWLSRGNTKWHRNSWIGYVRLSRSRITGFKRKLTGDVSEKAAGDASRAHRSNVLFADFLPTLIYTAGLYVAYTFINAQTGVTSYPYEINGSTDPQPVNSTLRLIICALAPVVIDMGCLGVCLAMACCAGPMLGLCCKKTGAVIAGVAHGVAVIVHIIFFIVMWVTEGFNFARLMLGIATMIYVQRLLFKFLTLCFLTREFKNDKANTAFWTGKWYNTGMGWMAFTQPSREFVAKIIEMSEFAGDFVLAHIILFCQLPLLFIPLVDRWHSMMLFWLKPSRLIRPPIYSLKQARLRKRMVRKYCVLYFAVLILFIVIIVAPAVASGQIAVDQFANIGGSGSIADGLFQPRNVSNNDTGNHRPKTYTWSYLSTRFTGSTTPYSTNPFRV

[5] = tested on: C. albicans ATCC 44858; test: MIC against C. albicans ATCC 44858 at pH 4; assay type: cell-based; conditions: Candida albicans, ATCC44858, pH 4
[6] = Pharmacokinetic-pharmacodynamic analyses, PK model free-drug plasma exposures; parameters: species or system mouse
Protocol: Pharmacokinetic-Pharmacodynamic Analyses. Using the data collected from the PK study, a PK model was developed in S-ADAPT. Using the developed PK model, concentration-time profiles and AUC0-168h values were computed for each dosing regimen administered in the dose-fractionation study. […] Relationships between the change in logio CFU from start of therapy and AUC0-168h were explored.

[7] = tested on: C. albicans ATCC 90028 and DPL22; test: MIC of strains used in mouse study (Table 3); conditions: Candida albicans
[8] = Phase 1 dose-escalation trials, pharmacokinetics after IV infusion; assay type: in vivo, human
Protocol: PK was assessed using plasma and urine samples collected over 21 days. Safety and tolerability were assessed by adverse events (AEs), vital signs, physical exams, electrocardiograms (ECGs), and safety laboratory values up to 21 days after dosing.

[9] = tested on: azole-resistant Candida albicans (R357); test: Disseminated infection model in neutropenic ICR mice, kidney fungal counts (Example 10, Tables 22-23); assay type: in vivo; conditions: for antimicrobial effect versus vehicle (one-way ANOVA, Dunnett's test): 48 and 72 hr after infection, Compound 1 3, 10, 30 mg/kg IP, amphotericin B 1 and 3 mg/kg IV, fluconazole 20 mg/kg PO; for reduction in colony counts compared to the vehicle control group: kidney, 20 mg/kg PO once
[10] = tested on: Candida albicans (Strain R303); test: MIC of dose-fractionation strain
[11] = tested on: Candida albicans (Strain R303); test: Dose-fractionation study in neutropenic ICR mice, kidney fungal burden (Table 24); conditions: 2 mg/kg as a single dose IP; 168 hours
[12] = Pharmacokinetic study in healthy ICR mice, single IP dose; conditions: 1 to 16 mg/kg IP
Protocol: Pharmacokinetic Study. […] The following doses, at three mice per dose, were studied: 1, 4, and 16 mg/kg.

[13] = Murine protein binding; assay type: in vitro ADME; conditions: mouse, plasma
[14] = tested on: Aspergillus fumigatus (ATCC 13073); test: Neutropenic mouse model of disseminated aspergillosis, survival; assay type: in vivo; conditions: one dose; Compound 1 2 mg/kg IV or IP, AMB 2 mg/kg IP; 10 days; P<0.05
[15] = Modeling of total plasma concentrations versus MPC; conditions: IV administration of 50 mg; calculated by modeling of pharmacokinetic data
[16] = tested on: C. glabrata CG01, ATCC 200918, MMX 7070; test: Time-kill assay in vagina-simulative medium pH 4.0 (Table 17); assay type: cell-based, Candida glabrata
[17] = tested on: C. tropicalis CTO2, MMX 7255, MMX 7525; test: Time-kill assay in vagina-simulative medium pH 4.0 (Table 18); assay type: cell-based, Candida tropicalis
[18] = tested on: C. parapsilosis CP02, CP01, MMX 7370; test: Time-kill assay in vagina-simulative medium pH 4.0 (Table 19); assay type: cell-based, Candida parapsilosis
[19] = tested on: C. albicans ATCC 44858, DPL001, R357; test: Time-kill assay in vagina-simulative medium pH 4.0 (Table 16); assay type: cell-based, Candida albicans
[20] = tested on: 1,3-β-D-glucan synthase from C. albicans; test: Glucan synthase (GS) inhibition assay
[21] = IC50, glucan synthase, ATCC 90028, WT
[22] = glucan synthase, DPL22, Fks1p S645P/S
[23] = ATCC90028, ATCC 90028, Fks1p WT, Fks2p WT
[24] = ATCC90028, DPL22, Fks1p S645P/S
[25] = IV infusion, healthy human subjects

CCCCCOc1ccc(-c2ccc(-c3ccc(C(=O)N[C@H]4C[C@@H](O)[C@@H](O)NC(=O)[C@@H]5[C@@H](O)[C@@H](C)CN5C(=O)[C@H]([C@@H](C)O)NC(=O)[C@H]([C@H](O)[C@@H](O)c5ccc(O)cc5)NC(=O)[C@@H]5C[C@@H](O)CN5C(=O)[C@H]([C@@H](C)O)NC4=O)cc3)cc2)cc1 [ANID, anidulafungin] ({pTerphenylCO(4''-OnC5H11)}-[Orn(4R-OH,5R-OH)]T[Hyp][hTyr(3S-OH,4S-OH)]T[Pro(3S-OH,4S-Me)]; lactam 1-C)
MIC [1]: 4 µg/mL (≈ 3.51 µM)

CC[C@H](C)C[C@H](C)CCCCCCCCC(=O)N[C@H]1C[C@@H](O)[C@@H](NCCN)NC(=O)[C@@H]2[C@@H](O)CCN2C(=O)[C@H]([C@H](O)CCN)NC(=O)[C@H]([C@H](O)[C@@H](O)c2ccc(O)cc2)NC(=O)[C@@H]2C[C@@H](O)CN2C(=O)[C@H]([C@@H](C)O)NC1=O [CAS, caspofungin]
MIC [1]: 0.5 µg/mL (≈ 0.457 µM)

CCCCCOc1ccc(-c2ccc(-c3ccc(C(=O)N[C@H]4C[C@@H](O)[C@@H](OCC[N+](C)(C)C)NC(=O)[C@@H]5[C@@H](O)[C@@H](C)CN5C(=O)[C@H]([C@@H](C)O)NC(=O)[C@H]([C@H](O)[C@@H](O)c5ccc(O)cc5)NC(=O)[C@@H]5C[C@@H](O)CN5C(=O)[C@H]([C@@H](C)O)NC4=O)cc3)cc2)cc1 [Compound 1] ({pTerphenylCO(4''-OnC5H11)}-[Orn(4R-OH,5R-OCH2CH2NMe3+)]T[Hyp][hTyr(3S-OH,4S-OH)]T[Pro(3S-OH,4S-Me)]; lactam 1-C)
IC50 [2]: 2150 nM
IC50 ([3]; IC50, DPL1002, WT): 11.6 nM
IC50 [3, 21]: 11.4 nM
IC50 [3, 22]: 24.5 nM
IC50 [4]: 283 nM
MIC [5]: 0.25 µg/mL
Free-drug plasma AUC0-24 ([6]; 2 mg/kg as a single dose): 65.4 ng·h/mL
time free-drug plasma concentrations of single dose remain above those of the daily regimen ([6]; 2 mg/kg total dose): 48 h
time free-drug plasma concentrations of single dose remain above those of the twice weekly regimen ([6]; 2 mg/kg total dose): 84 h
Free-drug plasma AUC0-24 ([6]; 2 mg/kg total, daily regimen): 9.48 ng·h/mL
Free-drug plasma AUC0-24 ([6]; 2 mg/kg total, twice weekly regimen): 30.3 ng·h/mL
MIC [7, 23]: < 0.03 µg/mL
MIC [7, 24]: 0.5 µg/mL
plasma exposures versus dose ([8]; 50-400 mg IV): dose-proportional plasma exposures
apparent clearance [8, 25]: < 0.3 L/h
urinary excretion [8, 25]: < 1%
half-life ([8]; plasma, IV infusion, healthy human subjects, read-out: half-life (t1/2)): > 80 h
reduction in fungal counts ([9]; 3, 10, and 30 mg/kg IP once, 48 and 72 hr time points): two log reduction
antimicrobial effect versus vehicle (one-way ANOVA, Dunnett's test) [9]: Significant antimicrobial effects
MIC [10]: 0.125 µg/mL
log10 CFU reduction from baseline [11]: greater than 2 log10 CFU
PK linearity over the dose range [12]: linear PK
fraction unbound [13]: 0.009
survival versus vehicle [14]: significantly longer survival than vehicle
total plasma concentration generated [15]: > 16 µg/mL

OC(Cn1cncn1)(Cn1cncn1)c1ccc(F)cc1F [FLU, fluconazole]
Susceptibility to FLU (S/R) ([16]; C. glabrata ATCC 200918): R
Susceptibility to FLU (S/R) ([16]; C. glabrata CG01): S
Susceptibility to FLU (S/R) ([16]; C. glabrata MMX 7070): R
Susceptibility to FLU (S/R) ([17]; C. tropicalis CT02): S
Susceptibility to FLU (S/R) ([17]; C. tropicalis MMX 7255): R
Susceptibility to FLU (S/R) ([17]; C. tropicalis MMX 7525): R
antimicrobial effect versus vehicle (one-way ANOVA, Dunnett's test) [9]: not significant
reduction in colony counts compared to the vehicle control group ([9]; 48 hr after infection): 51%
reduction in colony counts compared to the vehicle control group ([9]; 72 hr after infection): 84%
Susceptibility to FLU (S/R) ([18]; C. parapsilosis CP01): R
Susceptibility to FLU (S/R) ([18]; C. parapsilosis CP02): S
Susceptibility to FLU (S/R) ([18]; C. parapsilosis MMX 7370): R
Susceptibility to FLU (S/R) ([19]; C. albicans ATCC 44858): S
Susceptibility to FLU (S/R) ([19]; C. albicans DPL001): R
Susceptibility to FLU (S/R) ([19]; C. albicans R357): R

CCCCCOc1ccc(-c2cc(-c3ccc(C(=O)N[C@H]4C[C@@H](O)[C@@H](O)NC(=O)[C@@H]5[C@@H](O)[C@@H](C)CN5C(=O)[C@H]([C@H](O)CC(N)=O)NC(=O)[C@H]([C@H](O)[C@@H](O)c5ccc(O)c(OS(=O)(=O)O)c5)NC(=O)[C@@H]5C[C@@H](O)CN5C(=O)[C@H]([C@@H](C)O)NC4=O)cc3)no2)cc1 [MCF, micafungin] (X1-[Orn(4R-OH,5R-OH)]T[Hyp][hTyr(3S-OH,4S-OH,3'-OSO3H)][Gln(3R-OH)][Pro(3S-OH,4S-Me)]; lactam 1-C)
IC50 [2]: 2010 nM
fold increase in IC50 compared to the WT ([20]; F641S mutant): 100 fold
fold increase in IC50 compared to the WT ([20]; S645P mutant): 144 fold
IC50 ([3]; IC50, DPL1002, WT): 13.9 nM
IC50 [3, 21]: 14.2 nM
IC50 [3, 22]: 193 nM
IC50 [4]: 1400 nM
MIC [7, 23]: < 0.03 µg/mL
MIC [7, 24]: 0.5 µg/mL

— patent publication US20180256673A1, “METHODS FOR TREATING FUNGAL INFECTIONS” (priority 2015, published 2018)
